# Values of other authors in patent US10183097B2, “Engineered cardiac derived compositions and methods of use” (THE JOHNS HOPKINS UNIVERSITY, priority 2013, dated 2019).
# System: NRVM
# Conditions: inventors' previous NRVM study with myofibroblasts; agent added separately
SMILES,electrophysiological suppression of conduction,severity of arrhythmia
[Gd] [gadolinium],relieved the electrophysiological suppression of conduction,reduced the severity of arrhythmia
Cc1ccc2c(c1)C(=O)C1(O)CCN(c3ccccc3)C1=N2 (stereo not drawn) [blebbistatin],relieved the electrophysiological suppression of conduction,reduced the severity of arrhythmia
[H]/N=C(/N)N[C@H]1[C@H](O)[C@@H](O)[C@H](O[C@@H]2O[C@@H](C)[C@](O)(C=O)[C@H]2O[C@@H]2O[C@@H](CO)[C@H](O)[C@@H](O)[C@@H]2NC)[C@@H](N/C(N)=N\[H])[C@@H]1O [streptomycin],relieved the electrophysiological suppression of conduction,reduced the severity of arrhythmia
